Results taken from PubChem BioAssay (NCI).
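Each compound was tested at five concentrations against cells in 96-well plates for 48 hours. GI50 is the concentration that inhibits growth by half. TGI: concentration producing complete growth inhibition.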

What was measured:
Assay in all cases: inhibition of tumour cell growth, NCI panel, 48 h
[1] = test system: COLO 205 colon
[2] = test system: SF-268 CNS
[3] = test system: MCF7 breast
[4] = test system: MALME-3M melanoma
[5] = test system: T-47D breast
[6] = test system: CCRF-CEM leukemia
[7] = test system: KM12 colon
[8] = test system: HL-60(TB) leukemia
[9] = test system: HCT-116 colon
[10] = test system: DU-145 prostate
[11] = test system: CAKI-1 renal
[12] = test system: LOX IMVI melanoma
[13] = test system: NCI-H226 lung
[14] = test system: NCI/ADR-RES ovarian
[15] = test system: UACC-257 melanoma
[16] = test system: RXF 393 renal
[17] = test system: SF-295 CNS
[18] = test system: A498 renal
[19] = test system: HS 578T breast
[20] = test system: 786-0 renal
[21] = test system: PC-3 prostate
[22] = test system: NCI-H460 lung
[23] = test system: TK-10 renal
[24] = test system: NCI-H23 lung
[25] = test system: K-562 leukemia
[26] = test system: RPMI-8226 leukemia
[27] = test system: M14 melanoma
[28] = test system: MOLT-4 leukemia
[29] = test system: SF-539 CNS
[30] = test system: MDA-MB-231 breast
[31] = test system: SN12C renal
[32] = test system: SK-MEL-5 melanoma
[33] = test system: UO-31 renal
[34] = test system: IGROV1 ovarian
[35] = test system: EKVX NSCLC
[36] = test system: SW-620 colon
[37] = test system: OVCAR-5 ovarian
[38] = test system: HCC-2998 colon
[39] = test system: NCI-H522 lung
[40] = test system: SNB-75 CNS
[41] = test system: MDA-MB-435
[42] = test system: HOP-62 NSCLC
[43] = test system: BT-549 breast

Work on C[C@]12C[C@H](CCCCCCNCCOC(=O)NCCCc3ccc(N(CCCl)CCCl)cc3)C3=C4CCC(=O)C=C4CCC3C1CC[C@@H]2O (some centres undefined) yielded a GI50 [1] of 1450 nM, a TGI [1] of 3.9 µM and a GI50 [2] of 1200 nM. The TGI [2] was 3.86 µM, the GI50 [3] was 300 nM and the TGI [3] was 3.05 µM. For the same compound, the GI50 [4] was 2290 nM, the TGI [4] was 5.15 µM and the GI50 [5] was 1170 nM. It also gave a TGI [5] of 4.5 µM, a GI50 [6] of 234 nM and a TGI [6] of 621 nM. It also gave a GI50 [7] of 1870 nM, a TGI [7] greater than 21.6 µM and a GI50 [8] of 248 nM. For the same compound, the TGI [8] was 659 nM, the GI50 [9] was 2340 nM and the GI50 [10] was 454 nM. For the same compound, the TGI [10] was 1930 nM, the GI50 [11] was 1550 nM and the TGI [11] was 3.3 µM. It also gave a GI50 [12] of 1060 nM, a TGI [12] of 2270 nM and a GI50 [13] of 2150 nM. For the same compound, the TGI [13] was 4.15 µM, the GI50 [14] was 14 µM and the TGI [14] was 36.2 µM. For the same compound, the GI50 [15] was 1690 nM, the TGI [15] was 3.21 µM and the GI50 [16] was 294 nM. It also gave a TGI [16] of 1210 nM, a GI50 [17] of 2070 nM and a TGI [17] greater than 100 µM. It also gave a GI50 [18] of 1930 nM, a TGI [18] of 3.56 µM and a GI50 [19] of 1660 nM. For the same compound, the TGI [19] was 4.61 µM, the GI50 [20] was 841 nM and the TGI [20] was 3.89 µM. It also gave a GI50 [21] of 1170 nM, a GI50 [22] of 672 nM and a TGI [22] of 4.08 µM. The GI50 [23] was 1850 nM, the TGI [23] was 4.49 µM and the GI50 [24] was 1540 nM. The TGI [24] was 3.01 µM, the GI50 [25] was 308 nM and the TGI [25] was 1070 nM. It also gave a GI50 [26] of 304 nM, a TGI [26] of 1060 nM and a GI50 [27] of 2900 nM. For the same compound, the TGI [27] was 7.29 µM, the GI50 [28] was 340 nM and the TGI [28] was 1560 nM. It also gave a GI50 [29] of 1400 nM, a TGI [29] of 3.33 µM and a GI50 [30] of 2010 nM. It also gave a TGI [30] of 3.44 µM, a GI50 [31] of 1890 nM and a TGI [31] of 3.39 µM. For the same compound, the GI50 [32] was 1470 nM, the TGI [32] was 3.02 µM and the GI50 [33] was 1270 nM. It also gave a TGI [33] of 2980 nM, a GI50 [34] of 334 nM and a TGI [34] of 2110 nM. It also gave a GI50 [35] of 2070 nM, a TGI [35] of 4.05 µM and a GI50 [36] of 1200 nM. The TGI [36] was 4.07 µM, the GI50 [37] was 5.84 µM and the TGI [37] was 11 µM. The GI50 [38] was 1810 nM, the TGI [38] was 3.23 µM and the GI50 [39] was 1630 nM. It also gave a TGI [39] of 3.18 µM, a GI50 [40] of 1460 nM and a TGI [40] of 2910 nM. It also gave a GI50 [41] of 2380 nM, a TGI [41] of 6.53 µM and a GI50 [42] of 2200 nM. It also gave a TGI [42] of 10.4 µM, a GI50 [43] of 1600 nM and a TGI [43] of 3.09 µM.
